Data on 20 compounds can be found in patent publication EP4786465A1, “NOVEL COMPOUND, AND PHARMACEUTICAL COMPOSITION FOR PREVENTION OR TREATMENT OF CANCER OR TUMORS COMPRISING SAME” (Daewoong Pharmaceutical Co., Ltd., priority 2023, dated 2025).

What all share (format): cell-based
Assay [1] concerns transcription factor TEAD. The assay is described as follows: Activity inhibition test of transcription factor TEAD (ONE-Glo Luciferase assay, Hippo Pathway TEAD reporter-MCF7 recombinant cell line). The note with it: Homo sapiens; TEAD Reporter-MCF7 cells, 24 hours treatment, luciferase luminescence. The procedure: The transcription factor TEAD activity of the compounds prepared in the Examples was measured by the ONE-Glo™ Luciferase assay (Promega, Catalog #E6110) method using the Hippo Pathway TEAD reporter-MCF7 recombinant cell line (BPS Bioscience, Catalog #60618). Specifically, the TEAD Reporter-MCF7 cell line contains the firefly luciferase gene whose expression is regulated under the control of TEAD response elements in the MCF7, which is a human breast cancer cell line. In the cell line, a non-phosphorylated YAP/TAZ exists in the nucleus in a non-stressed condition, which continuously induces expression of the luciferase reporter. TEAD Reporter-MCF7 cells were prepared in 100 µL of cell culture medium (MEM medium, 10% FBS, 1% P/S, 400 µg/mL Geneticin, 1% […], 1 mM NA pyruvate, 10 µg/mL Insulin) in a white clear bottom 96-well microplate. The prepared plate was incubated in a 5% CO2 incubator at 37°C for 24 hours, and then the previously prepared compounds of Examples were finally treated at concentrations of 0.0005, 0.005, 0.05, 0.5 and 5 µM, which were repeated three times for all treatment solutions. The plates treated with the compounds of Examples were incubated in a 5% CO2 incubator at 37°C for 24 hours. 100 µL/well of the substrate aqueous solution containing luciferin was added to a white clear-bottom 96 well microplate, thereby initiating an enzyme reaction. The reaction was performed at room temperature for 5 minutes, and the luminescence (integration time 1000 ms) was measured using a Flexstation3 multi-mode microplate reader. In accordance with the instructions for the ONE-Glo™ Luciferase Assay, the luciferase enzyme activity, which represents the activity of the transcription factor TEAD, was measured by a chemiluminescence method, and the inhibitory activity of the compound according to the present disclosure was calculated. The results of each compound were analyzed using Microsoft Excel, and the IC50 values were calculated by GraphPad Prism software.

Assay [2] relates to NCI-H226. As to the kind of experiment: Cell growth inhibition test (CellTiter-Glo Luminescent Cell Viability), NCI-H226. The note with it: Homo sapiens. Here is the method:
(§1) The cell growth for the compounds prepared in Examples was measured by CellTiter-Glo® Luminescednt Cell Viability (Promega, Catalog #G7571) method using NCI-H226 (addexbio), NCI-H28 (Korea Cell Line Bank) cell lines. This evaluation method is a method in which when luciferase enzyme is activated by ATP flowing out from living cells, it reacts with a luciferin substrate, and the enzyme activity at this time is measured to confirm cell viability.
(§2) Specifically, NCI-H226, and NCI-H28 cells were prepared in 100 µL of cell culture medium (RPMI medium, 10% FBS, 1% P/S, 4.5 g/L D-Glucose, 2.383 g/L HEPES Buffer, L-Glutamine, 1.5 g/L Sodium Bicarbonate, 110 mg/L Sodium pyruvate) in a white clear bottom 96-well microplate. The prepared plate was incubated in a 5% CO2 incubator at 37°C for 24 hours, and then the previously prepared compounds of Examples were finally treated at concentrations of 0.0005, 0.005, 0.05, 0.5 and 5 µM, which was repeated three times for all treatment solutions. The plates treated with the compounds of Examples were incubated in a 5% CO2 incubator at 37°C. 100 µL/well of the substrate aqueous solution containing luciferin was added to a white clear-bottom 96 well microplate, thereby initiating an enzyme reaction. The reaction was performed at room temperature in the dark for 10 minutes, and the luminescence was measured using a Flexstation3 multi-mode microplate reader. In accordance with the instructions for the CellTiter-Glo™ Luminescednt Cell Viability, the luciferase enzyme activity, which represents the amount of ATP, was measured by a chemiluminescence method, and the inhibitory activity of the compounds according to the present disclosure was calculated. The results of each compound were analyzed using Microsoft Excel, and the IC50 values were calculated using GraphPad Prism software.
(In general: Cellular ATP, detected with luciferase, serves as a proxy for viable cell number.)

The test system of assay [3] is NCI-H28. The assay is described as follows: Cell growth inhibition test (CellTiter-Glo Luminescent Cell Viability), NCI-H28. The note with it: Homo sapiens. The procedure:
as §1, §2

The mark [4] stands for this setting: NCI-H226 cells, CellTiter-Glo, read-out: growth IC50 H226.
Where [5] appears, read: NCI-H28 cells, CellTiter-Glo, read-out: growth IC50 H28.

SMILES strings stand for the structures. pIC50: −log10 of the molar value. Like-named read-outs stand apart in the source and are kept apart here.

In general, pIC50 refers to −log10 of the IC50, conventionally taken in molar units. For `C=CC(=O)N1Cc2cc(Nc3ccc(C(F)(F)F)cc3)c(-c3cn(C)cn3)cc2C1` [Example 1, 1-(5-(1-methyl-1H-imidazol4-yl)-6-((4-(trifluoromethyl)phenyl)amino)isoindolin-2-yl)prop-2-en-1-one], the pIC50 in assay [1] is 7.37; in assay [2] (setting [4]), 7.67; in assay [3] (setting [5]) it was 5.52.
In the same order, the values of `CNS(=O)(=O)N1Cc2cc(Nc3ccc(C(F)(F)F)cc3)c(-c3cn(C)cn3)cc2C1` [Example 2, N-methyl-5-(1-methyl-1H-imidazol-4-yl)-6-((4-(trifluoromethyl)phenyl)amino)isoindoline-2-sulfonamide] are 5.84, 7.05 and 5.28.
For the compound `C=CC(=O)N1CCc2c(ccc(Nc3ccc(C(F)(F)F)cc3)c2-c2cn(C)cn2)C1` [Example 3, 1-(5-(1-methyl-1H-imidazol-4-yl)-6-((4-(trifluoromethyl)phenyl)amino)-3,4-dihydroisoquinolin-2(1H)-yl)prop-2-en-1-one], the negative-log IC50 (pIC50) in assay [1] is 7.59; in assay [2] (setting [4]), 8.01; in assay [3] (setting [5]) it was 6.02.
In the same order, the values of `CNS(=O)(=O)N1CCc2c(ccc(Nc3ccc(C(F)(F)F)cc3)c2-c2cn(C)cn2)C1` [Example 4, N-methyl-5-(1-methyl-1H-imidazol-4-yl)-6-((4-(trifluoromethyl)phenyl)amino)-3,4-dihydroisoquinoline-2(1H)-sulfonamide] are 5.32, 5.87 and 5.00.
In the same order, the values of `C=CC(=O)N1Cc2ccc(Nc3ccc(C(F)(F)F)cc3)c(-c3cn(C)cn3)c2C1` [Example 5, 1-(4-(1-methyl-1H-imidazol-4-yl)-5-((4-(trifluoromethyl)phenyl)amino)isoindolin-2-yl)prop-2-en-1-one] are 6.22, 6.92 and 5.70.
In the same order, the values of `CNS(=O)(=O)N1Cc2ccc(Nc3ccc(C(F)(F)F)cc3)c(-c3cn(C)cn3)c2C1` [Example 6, N-methyl-4-(1-methyl-1H-imidazol-4-yl)-5-((4-(trifluoromethyl)phenyl)amino)isoindoline-2-sulfonamide] are 5.81, 6.03 and 5.18.
Turning to `C=CC(=O)N1CCc2c(ccc(Nc3ccc(C(F)(F)F)cc3)c2-c2cn3c(n2)CCC3)C1` [Example 7, 1-(5-(6,7-dihydro-5H-pyrrolo[1,2-a]imidazol-2-yl)-6-((4-(trifluoromethyl)phenyl)amino)-3,4-dihydroisoquinolin-2(1H)-yl)prop-2-en-1-one], the pIC50 was 7.84 in assay [1], 7.42 in assay [2] (setting [4]) and 5.66 in assay [3] (setting [5]).
Consider `Cn1cnc(-c2cc3c(cc2Nc2ccc(C(F)(F)F)cc2)CN(CC#N)C3)c1` [Example 8, 2-(5-(1-methyl-1H-imidazol-4-yl)-6-((4-(trifluoromethyl)phenyl)amino)isoindolin-2-yl)acetonitrile], for which the pIC50 is 5.03 in assay [1]; 5.82 in assay [2] (NCI-H226, read-out: growth IC50 H226); 5.00 in assay [3] (NCI-H28, read-out: growth IC50 H28).
As for `C=CC(=O)N1CCc2c(ccc(Nc3ccc(C(F)(F)F)c(F)c3)c2-c2cn(C)cn2)C1` [Example 9, 1-(6-((3-fluoro-4-(trifluoromethyl)phenyl)amino)-5-(1-methyl-1H-imidazol-4-yl)-3,4-dihydroisoquinolin-2(1H)-yl)prop-2-en-1-one], the pIC50 was 7.47 in assay [1], 7.44 in assay [2] (setting [4]) and 6.11 in assay [3] (setting [5]).
In the same order, the values of `C=CC(=O)N1CCc2c(ccc(Nc3ccc(F)cc3)c2-c2cn(C)cn2)C1` [Example 10, 1-(6-((4-fluorophenyl)amino)-5-(1-methyl-1H-imidazol-4-yl)-3,4-dihydroisoquinolin-2(1H)-yl)prop-2-en-1-one] are 7.30, 7.00 and 5.82.
On to `C=CC(=O)N1Cc2cc(Nc3ccc(F)cc3)c(-c3cn(C)cn3)cc2C1` [Example 11, 1-(5-((4-fluorophenyl)amino)-6-(1-methyl-1H-imidazol-4-yl)isoindolin-2-yl)prop-2-en-1-one], for which the negative logarithm of the IC50 (pIC50) in assay [1] is 5.72.
Still for that read-out and setting: to `C=CC(=O)N1CCc2ccc(Nc3ccc(F)cc3)c(-c3cn(C)cn3)c2C1` [Example 12, 1-(7-((4-fluorophenyl)amino)-8-(1-methyl-1H-imidazol-4-yl)-3,4-dihydroisoquinolin-2(1H)-yl)prop-2-en-1-one] belongs < 5.00.
Take `C=CC(=O)N1CCc2c(ccc(Nc3cc(F)cc(F)c3)c2-c2cn(C)cn2)C1` [Example 13, 1-(6-((3,5-difluorophenyl)amino)-5-(1-methyl-1H-imidazol-4-yl)-3,4-dihydroisoquinolin-2(1H)-yl)prop-2-en-1-one]: the negative logarithm of the IC50 (pIC50) was 7.55 in assay [1], 7.26 in assay [2] (setting [4]) and 5.70 in assay [3] (setting [5]).
Taken in the same sequence, the figures for `C=CC(=O)N1CCc2c(ccc(Nc3cc(F)c(F)c(F)c3)c2-c2cn(C)cn2)C1` [Example 14, 1-(5-(1-methyl-1H-imidazol-4-yl)-6-((3,4,5-trifluorophenyl)amino)-3,4-dihydroisoquinolin-2(1H)-yl)prop-2-en-1-one] were 8.17, 7.78 and 5.74.
Taken in the same sequence, the figures for `C=CC(=O)N1CCc2c(ccc(Nc3ccc(Cl)cc3)c2-c2cn(C)cn2)C1` [Example 15, 1-(6-((4-chlorophenyl)amino)-5-(1-methyl-1H-imidazol-4-yl)-3,4-dihydroisoquinolin-2(1H)-yl)prop-2-en-1-one] were 8.23, 7.51 and 5.62.
In the same order, the values of `C=CC(=O)N1CCc2c(ccc(Nc3ccc(Br)cc3)c2-c2cn(C)cn2)C1` [Example 16, 1-(6-((4-bromophenyl)amino)-5-(1-methyl-1H-imidazol-4-yl)-3,4-dihydroisoquinolin-2(1H)-yl)prop-2-en-1-one] are 8.09, 7.45 and 6.20.
For `C=CC(=O)N1Cc2cc(Nc3cc(F)c(F)c(F)c3)c(-c3cn(C)cn3)cc2C1` [Example 18, 1-(5-(1-methyl-1H-imidazol-4-yl)-6-((3,4,5-trifluorophenyl)amino)isoindolin-2-yl)prop-2-en-1-one], in assay [1], the pIC50 was 6.62.
In the case of `C=CC(=O)N1Cc2cc(Nc3ccc(Cl)cc3)c(-c3cn(C)cn3)cc2C1` [Example 19, 1-(5-((4-chlorophenyl)amino)-6-(1-methyl-1H-imidazol-4-yl)isoindolin-2-yl)prop-2-en-1-one], the negative-log IC50 (pIC50) in assay [1] is 6.93.
Same read-out and setting: to `C=CC(=O)N1CCc2c(ccc(Nc3cc(Cl)cc(C(F)(F)F)c3)c2-c2cn(C)cn2)C1` [Example 22, 1-(6-((3-chloro-5-(trifluoromethyl)phenyl)amino)-5-(1-methyl-1H-imidazol-4-yl)-3,4-dihydroisoquinolin-2(1H)-yl)prop-2-en-1-one] belongs 6.62; to `C=CC(=O)N1CCc2c(ccc(Nc3cc(C(F)(F)F)cc(C(F)(F)F)c3)c2-c2cn(C)cn2)C1` [Example 23, 1-(6-((3,5-bis(trifluoromethyl)phenyl)amino)-5-(1-methyl-1H-imidazol-4-yl)-3,4-dihydroisoquinolin-2(1H)-yl)prop-2-en-1-one], < 5.30.
